Numbered stars: 1 amine (or outer) side, 2 acyl side, 3 side chain; on linkers, the order of the positions; unused ones are H or OH. Bridge positions count the residues as written; N and C are the ends. Square brackets hold non-standard residues; d marks the D form. Peptide text beside a SMILES is read from it. Phe(4-NH2) = Nc1ccc(C[C@H](N)C(=O)O)cc1; CH2 = C([*:1])[*:2]
target: T1, Angiotensin II receptor (AT-1) type-1 (Rattus norvegicus, UniProt P29089+P25095); assay: Binding affinity for angiotensin II receptor type 1 using [125I]- Ang II in rat liver membranes; assay type: cell membranes, Membrane
T1 sequence (P29089 whole entry): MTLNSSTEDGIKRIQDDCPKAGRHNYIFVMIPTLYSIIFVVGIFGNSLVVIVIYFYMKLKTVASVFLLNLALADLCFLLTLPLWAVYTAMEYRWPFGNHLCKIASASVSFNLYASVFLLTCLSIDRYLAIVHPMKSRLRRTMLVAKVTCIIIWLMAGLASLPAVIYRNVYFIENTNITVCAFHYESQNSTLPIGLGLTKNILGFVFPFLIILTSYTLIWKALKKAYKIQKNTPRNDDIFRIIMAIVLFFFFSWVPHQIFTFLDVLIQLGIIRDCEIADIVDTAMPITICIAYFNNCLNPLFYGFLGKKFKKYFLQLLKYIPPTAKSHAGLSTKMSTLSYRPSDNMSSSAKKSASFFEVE
T1 sequence (P25095 whole entry): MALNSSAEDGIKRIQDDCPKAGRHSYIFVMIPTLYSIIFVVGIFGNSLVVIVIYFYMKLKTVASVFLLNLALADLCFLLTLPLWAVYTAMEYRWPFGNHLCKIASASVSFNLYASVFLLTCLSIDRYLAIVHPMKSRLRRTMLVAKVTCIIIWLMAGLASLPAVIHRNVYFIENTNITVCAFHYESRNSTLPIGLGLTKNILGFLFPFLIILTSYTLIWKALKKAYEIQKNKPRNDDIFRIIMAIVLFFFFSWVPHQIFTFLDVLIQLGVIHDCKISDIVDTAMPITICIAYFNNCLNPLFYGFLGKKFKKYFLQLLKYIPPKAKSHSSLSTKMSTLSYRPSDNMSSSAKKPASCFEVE

Row | SMILES | Ki [µM]
1 | CC[C@@H](C)[C@@H](C(=O)N[C@@H](Cc1c[nH]cn1)C(=O)N1CCC[C@H]1C(=O)N[C@@H](Cc1ccccc1)C(=O)O)N1Cc2cc(NC(=O)[C@H](CCCN=C(N)N)NC(=O)[C@@H](N)CC(=O)O)ccc2[C@@H](Cc2ccc(O)cc2)C1=O (single isomer, unassigned; diastereomer a) | > 10
2 | CC[C@H](C)[C@H](NC(=O)[C@H](Cc1ccc(O)cc1)NC(=O)[C@@H](NC(=O)[C@H](CCCN=C(N)N)NC(=O)[C@@H](N)CC(=O)O)C(C)C)C(=O)N[C@@H](Cc1ccc(N)cc1)C(=O)N1CCC[C@H]1C(=O)N[C@@H](Cc1ccccc1)C(=O)O (H-DRVYI[Phe(4-NH2)]PF-OH) | > 10

Now from value to compound:

Row | Ki [µM] | SMILES
3 | 0.044 | N=C(N)NCCC[C@H](NC(=O)[C@@H](N)CC(=O)O)C(=O)N[C@H]1CSCSC[C@@H](C(=O)N[C@@H](Cc2cnc[nH]2)C(=O)N2CCC[C@H]2C(=O)N[C@@H](Cc2ccccc2)C(=O)O)NC(=O)[C@H](Cc2ccc(O)cc2)NC1=O (H-DRCYCHPF-OH; linker 3-5 via CH2)
4 | > 10 | CC(C)[C@H](NC(=O)[C@H](C)NC(=O)[C@@H](N)CC(=O)O)C(=O)Nc1ccc2c(c1)CN(CC(=O)N[C@@H](Cc1c[nH]cn1)C(=O)N1CCC[C@H]1C(=O)N[C@@H](Cc1ccccc1)C(=O)O)C(=O)[C@H](Cc1ccc(O)cc1)N2
5 | > 10 | CC(C)[C@H](NC(=O)[C@H](CCCN=C(N)N)NC(=O)[C@@H](N)CC(=O)O)C(=O)N[C@@H](Cc1ccc(O)cc1)C(=O)Nc1ccc2c(c1)CN(CC(=O)N[C@@H](Cc1ccccc1)C(=O)O)C(=O)[C@H](Cc1c[nH]cn1)N2
